Source: PubChem BioAssay (NCI)
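96-well plates; 48 h exposure; 5 concentrations. Endpoints by linear interpolation between flanking doses. Not reached: highest tested concentration assigned. GI50 marks 50% less growth. TGI: total growth inhibition.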

What was measured:
Test in all cases: inhibition of tumour cell growth, NCI panel, 48 h
[1] = test system: MALME-3M melanoma
[2] = test system: OVCAR-3 ovarian
[3] = test system: CCRF-CEM leukemia
[4] = test system: A549 NSCLC
[5] = test system: HOP-92 NSCLC
[6] = test system: BT-549 breast
[7] = test system: IGROV1 ovarian
[8] = test system: SW-620 colon
[9] = test system: SK-MEL-5 melanoma
[10] = test system: UACC-62 melanoma
[11] = test system: MCF7 breast
[12] = test system: RXF 393 renal
[13] = test system: 786-0 renal
[14] = test system: NCI-H23 lung
[15] = test system: NCI-H460 lung
[16] = test system: ACHN renal
[17] = test system: SK-MEL-2 melanoma
[18] = test system: SNB-19 CNS
[19] = test system: NCI-H226 lung
[20] = test system: NCI/ADR-RES ovarian
[21] = test system: TK-10 renal
[22] = test system: UACC-257 melanoma
[23] = test system: SK-OV-3 ovarian
[24] = test system: HL-60(TB) leukemia
[25] = test system: OVCAR-4 ovarian
[26] = test system: HS 578T breast
[27] = test system: A498 renal
[28] = test system: UO-31 renal
[29] = test system: DU-145 prostate

COc1ccc(C(C)=C(c2ccc(OCCN3CCCCCC3)cc2)c2ccc(OCCN3CCCCCC3)cc2)cc1
GI50 [1]: 300 nM | TGI [1]: 616 nM | GI50 [2]: 1870 nM | TGI [2]: 4070 nM | GI50 [3]: 503 nM | TGI [3]: 4320 nM | GI50 [4]: 1230 nM | TGI [4]: 3850 nM | GI50 [5]: 843 nM | TGI [5]: 3890 nM | GI50 [6]: 2030 nM | TGI [6]: 4210 nM | GI50 [7]: 1870 nM | TGI [7]: 4280 nM | GI50 [8]: 450 nM | TGI [8]: 1480 nM | GI50 [9]: 1310 nM | TGI [9]: 3470 nM | GI50 [10]: 869 nM | TGI [10]: 2050 nM | GI50 [11]: 177 nM | TGI [11]: 579 nM | GI50 [12]: 646 nM | TGI [12]: 2560 nM | GI50 [13]: 606 nM | TGI [13]: 1550 nM | GI50 [14]: 2670 nM | TGI [14]: 9520 nM | GI50 [15]: 635 nM | TGI [15]: 2180 nM | GI50 [16]: 2090 nM | TGI [16]: 4370 nM | GI50 [17]: 2950 nM | TGI [17]: 6340 nM | GI50 [18]: 1360 nM | TGI [18]: 4020 nM | GI50 [19]: 2320 nM | TGI [19]: 5330 nM | GI50 [20]: 2070 nM | TGI [20]: 4550 nM | GI50 [21]: 3120 nM | TGI [21]: 6730 nM | GI50 [22]: 587 nM | TGI [22]: 1590 nM | GI50 [23]: 2550 nM | TGI [23]: 5230 nM | GI50 [24]: 1020 nM | TGI [24]: 2320 nM | GI50 [25]: 2430 nM | TGI [25]: 5900 nM | GI50 [26]: 1120 nM | TGI [26]: 4560 nM | GI50 [27]: 2200 nM | TGI [27]: 4410 nM | GI50 [28]: 1780 nM | TGI [28]: 3970 nM | GI50 [29]: 2280 nM | TGI [29]: 5730 nM
